Consider 15 compounds from patent US20250163047A1, “HETEROCYCLIC COMPOUNDS, COMPOSITIONS THEREOF, AND METHODS OF TREATMENT THEREWITH” (BeiGene, Ltd., priority 2022, published 2025).

Experiment [1] has as its target T1, Cbl-b (aa36-427) (Homo sapiens, UniProt Q13191).
T1 construct: Cbl-b (aa36-427, in-house); made in house
Description: Biotin-labelled Cbl-b biochemical assay (CBLB/E2-Ub binding, HTRF). As to conditions: 5.0 nM biotin labelled Cbl-b. On the procedure: (§1) The assay in the absence of a Cbl-b/Cbl inhibitor, where phosphorylation of Cbl-b/Cbl by the Src kinase allows UbcH5B-Ub to bind to Cbl-b/Cbl and brings the Bodipy-Fluorescein tagged ubiquitin in proximity to the streptavidin-terbium bound to the N-terminal biotinylated Avi-tagged Cbl-b/Cbl. […] The lack of a FRET signal indicates Cbl-b/Cbl is inhibited by the Cbl-b/Cbl inhibitor.
5.0 nM recombinant biotin labelled Cbl-b was pre-incubated with a serial dilution of compounds (maximum concentration is 100 μM, 3-fold serially diluted, 16 points) at room temperature for 1.5 hour in an assay buffer containing 50 mM HEPES, pH 7.0, 100 mM NaCl, 0.01% BSA, 1 mM DTT, 0.01% Triton X-100. Then 25 nM in-house UbcH5B-Ub conjugate protein, 60 nM SRC (aa251-536, in-house), 0.5 mM ATP, 5 mM MgCl2 and Streptavidin-Tb cryptate (Cat: 610SATLB, Cisbio Bioassays) were added to plate and further incubated at room temperature for 2 hours.

The target of experiment [2] is T2, Cbl (aa49-434) (Homo sapiens, UniProt P22681).
T2 construct: Cbl (aa49-434, in-house); made in house
T2 sequence (P22681 49-434): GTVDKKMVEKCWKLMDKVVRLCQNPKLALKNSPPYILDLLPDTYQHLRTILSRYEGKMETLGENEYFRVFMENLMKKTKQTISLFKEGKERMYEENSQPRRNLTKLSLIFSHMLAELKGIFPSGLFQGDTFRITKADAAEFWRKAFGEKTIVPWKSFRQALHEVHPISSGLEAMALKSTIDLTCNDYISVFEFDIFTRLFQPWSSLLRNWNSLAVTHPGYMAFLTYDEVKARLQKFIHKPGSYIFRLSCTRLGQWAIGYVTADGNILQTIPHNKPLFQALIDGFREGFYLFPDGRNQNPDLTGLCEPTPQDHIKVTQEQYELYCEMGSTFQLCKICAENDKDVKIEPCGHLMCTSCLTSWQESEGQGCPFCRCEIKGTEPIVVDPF
Kind of experiment: Biotin-labelled Cbl biochemical assay (CBL/E2-Ub binding, HTRF). As to conditions: 5.0 nM biotin labelled Cbl. On the procedure: as §1
5.0 nM recombinant biotin labelled Cbl was pre-incubated with a serial dilution of compounds (maximum concentration is 100 µM, 3-fold serially diluted, 16 points) at room temperature for 1.5 hour in an assay buffer containing 50 mM HEPES, pH 7.0, 100 mM NaCl, 0.01% BSA, 1 mM DTT, 0.01% Triton X-100. Then 10 nM in-house UbcH5B-Ub conjugate protein, 60 nM SRC (aa251-536, in-house), 0.5 mM ATP, 5 mM MgCl2 and Streptavidin-Tb cryptate (Cat: 610SATLB, Cisbio Bioassays) were added to plate and further incubated at room temperature for 2 hours.

Experiment [3] deals with T1, Cbl-b (aa36-427). Description: Co-expressed Cbl-b with BirA biochemical assay (CBLB/E2-Ub binding, HTRF). The settings on record: 0.6 nM Cbl-b co-expressed with BirA, HTRF; read-out: co-express CBLB/E2-Ub-binding assay IC50.
Source text: as §1

Experiment [4] has as its target T2, Cbl (aa49-434). Kind of experiment: Co-expressed Cbl with BirA biochemical assay (CBL/E2-Ub binding, HTRF). As to conditions: 0.6 nM Cbl co-expressed with BirA, read-out: co-express CBL/E2-Ub-binding assay IC50.
Source text: as §1

T1 sequence (Q13191 36-427): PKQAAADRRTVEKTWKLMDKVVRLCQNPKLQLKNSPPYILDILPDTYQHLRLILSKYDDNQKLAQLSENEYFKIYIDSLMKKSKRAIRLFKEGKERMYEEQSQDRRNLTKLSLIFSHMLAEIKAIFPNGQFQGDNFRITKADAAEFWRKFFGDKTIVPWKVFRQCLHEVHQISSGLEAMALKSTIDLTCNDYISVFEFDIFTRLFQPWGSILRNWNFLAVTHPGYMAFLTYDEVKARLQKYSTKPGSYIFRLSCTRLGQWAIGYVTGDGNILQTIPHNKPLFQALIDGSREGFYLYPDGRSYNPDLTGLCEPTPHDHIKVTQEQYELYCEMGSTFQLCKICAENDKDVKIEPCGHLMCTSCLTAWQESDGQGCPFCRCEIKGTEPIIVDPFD

Turning to `C[C@H]1CCCN(Cc2cc(C(=O)Nc3cccc([C@]4(c5nncn5C)C[C@@H](C)C4)c3)nc3c2CC[C@@H]3C)C1` (single isomer, unassigned) [Compound C4, (S)-7-methyl-N-(3-((1s,3R)-3-methyl-1-(4-methyl-4H-1,2,4-triazol-3-yl)cyclobutyl)phenyl)-4-(((S)-3-methylpiperidin-1-yl)methyl)-6,7-dihydro-5H-cyclopenta[b]pyridine-2-carboxamide or (R)-7-methyl-N-(3-((1s,3S)-3-methyl-1-(4-methyl-4H-1,2,4-triazol-3-yl)cyclobutyl)phenyl)-4-(((S)-3-methylpiperidin-1-yl)methyl)-6,7-dihydro-5H-cyclopenta[b]pyridine-2-carboxamide], the IC50 in experiment [1] stood at 16.2 nM; in experiment [2] it was 76 nM.

As to `C[C@H]1CCCN(Cc2cc(C(=O)Nc3cccc([C@]4(c5nncn5C)C[C@H](C)C4)c3)c3nccn3c2)C1` [Compound A2, N-(3-((1r,3S)-3-methyl-1-(4-methyl-4H-1,2,4-triazol-3-yl)cyclobutyl)phenyl)-6-(((S)-3-methylpiperidin-1-yl)methyl)imidazo[1,2-a]pyridine-8-carboxamide], the IC50 amounted to 3.26 nM in experiment [1] and 23 nM in experiment [2].

For the compound `C[C@@H]1CN(Cc2cc(C(=O)Nc3cccc([C@]4(c5nncn5C)C[C@@H](CC#N)C4)c3)c3nccn3c2)CCO1` [Compound A5, N-(3-((1s,3S)-3-(cyanomethyl)-1-(4-methyl-4H-1,2,4-triazol-3-yl)cyclobutyl)phenyl)-6-(((R)-2-methylmorpholino)methyl)imidazo[1,2-a]pyridine-8-carboxamide], the IC50 in experiment [1] was 138 nM; in experiment [2] it was 914 nM.

With `C[C@H]1CCCN(Cc2cc(C(=O)Nc3cccc([C@]4(c5nncn5C)C[C@@H](C)C4)c3)nc3c2CC[C@@H]3C)C1` (single isomer, unassigned) [Compound C3, (S)-7-methyl-N-(3-((1s,3R)-3-methyl-1-(4-methyl-4H-1,2,4-triazol-3-yl)cyclobutyl)phenyl)-4-(((S)-3-methylpiperidin-1-yl)methyl)-6,7-dihydro-5H-cyclopenta[b]pyridine-2-carboxamide or (R)-7-methyl-N-(3-((1s,3S)-3-methyl-1-(4-methyl-4H-1,2,4-triazol-3-yl)cyclobutyl)phenyl)-4-(((S)-3-methylpiperidin-1-yl)methyl)-6,7-dihydro-5H-cyclopenta[b]pyridine-2-carboxamide], the IC50 in experiment [1] stood at 4.8 nM; in experiment [2], 21.7 nM.

As for `C[C@H]1CCCN(Cc2cc(C(=O)Nc3cccc([C@]4(c5nncn5C)C[C@@H](C)C4)c3)c3nccn3c2)C1` [Compound A1, N-(3-((1s,3R)-3-methyl-1-(4-methyl-4H-1,2,4-triazol-3-yl)cyclobutyl)phenyl)-6-(((S)-3-methylpiperidin-1-yl)methyl)imidazo[1,2-a]pyridine-8-carboxamide], the IC50 came out at 5.36 nM in experiment [1] and 31.8 nM in experiment [2].

For the compound `C[C@H]1CCCN(Cc2cc(C(=O)Nc3cccc([C@]4(c5nncn5C)C[C@@H](CC#N)C4)c3)nc3c2CCC3(F)F)C1` [Compound C6, N-(3-((1s,3R)-3-(cyanomethyl)-1-(4-methyl-4H-1,2,4-triazol-3-yl)cyclobutyl)phenyl)-7,7-difluoro-4-(((S)-3-methylpiperidin-1-yl)methyl)-6,7-dihydro-5H-cyclopenta[b]pyridine-2-carboxamide], the IC50 stood at 3.4 nM in experiment [1] and 48 nM in experiment [2].

On to `CC1CC(c2cccc(NC(=O)c3cc(CN4CCC[C@H](C)C4)c4c(n3)CCC4)c2)(c2nncn2C)C1` (stereo partly drawn) [Compound C1, (S)—N-(3-(3-methyl-1-(4-methyl-4H-1,2,4-triazol-3-yl)cyclobutyl)phenyl)-4-((3-methylpiperidin-1-yl)methyl)-6,7-dihydro-5H-cyclopenta[b]pyridine-2-carboxamide], for which the IC50 amounted to 11 nM in experiment [1] and 60 nM in experiment [2].

Consider `C[C@H]1CCCN(Cc2cc(C(=O)Nc3cccc([C@]4(c5nncn5C)C[C@@H](C)C4)c3)nc3c2CCC3(F)F)C1` [Compound C5, 7,7-difluoro-N-(3-((1s,3R)-3-methyl-1-(4-methyl-4H-1,2,4-triazol-3-yl)cyclobutyl)phenyl)-4-(((S)-3-methylpiperidin-1-yl)methyl)-6,7-dihydro-5H-cyclopenta[b]pyridine-2-carboxamide], for which the IC50 was 8.3 nM in experiment [1] and 29.1 nM in experiment [2].

Turning to `CC1CCc2c(CN3CCC[C@H](C)C3)cc(C(=O)Nc3cccc([C@]4(c5nncn5C)C[C@@H](C)C4)c3)nc21` (stereo partly drawn) [Compound C2, 7-methyl-N-(3-((1s,3R)-3-methyl-1-(4-methyl-4H-1,2,4-triazol-3-yl)cyclobutyl)phenyl)-4-(((S)-3-methylpiperidin-1-yl)methyl)-6,7-dihydro-5H-cyclopenta[b]pyridine-2-carboxamide], the IC50 in experiment [1] was 11.9 nM; in experiment [2], 28.8 nM.

As for `C[C@@H]1CN(Cc2cc(C(=O)Nc3cccc([C@]4(Cc5nncn5C)C[C@@H](C#N)C4)c3)c3nccn3c2)CC[C@@H]1F` [Compound A48, N-(3-((1r,3R)-3-cyano-1-((4-methyl-4H-1,2,4-triazol-3-yl)methyl)cyclobutyl)phenyl)-6-(((3R,4S)-4-fluoro-3-methylpiperidin-1-yl)methyl)imidazo[1,2-a]pyridine-8-carboxamide], the values for the IC50 in experiment [3] and in experiment [4] were 0.8 nM and 2.7 nM, respectively.

Regarding `Cn1cnnc1C[C@]1(c2cccc(NC(=O)c3cc(CNCC4(C)CCCC4)cn4c(Cl)cnc34)c2)C[C@H](C#N)C1` [Compound A29, 3-chloro-N-(3-((1r, 3r)-3-cyano-1-((4-methyl-4H-1,2,4-triazol-3-yl)methyl)cyclobutyl)phenyl)-6-((((1-methylcyclopentyl)methyl)amino)methyl)imidazo[1,2-a]pyridine-8-carboxamide], the IC50 in experiment [3] came to 1.3 nM; in experiment [4], 2.3 nM.

With `Cc1c[nH]c2c(CNCC(C)C)cc(C(=O)Nc3cncc([C@]4(c5nncn5C)C[C@@H](C)C4)c3)nc12` [Compound B21, 7-((isobutylamino)methyl)-3-methyl-N-(5-((1s, 3s)-3-methyl-1-(4-methyl-4H-1,2,4-triazol-3-yl)cyclobutyl)pyridin-3-yl)-1H-pyrrolo[3,2-b]pyridine-5-carboxamide], the IC50 was 2.2 nM in experiment [3] and 7.5 nM in experiment [4].

Take `C[C@H]1CCCN(Cc2cc(C(=O)Nc3cccc([C@]4(c5nncn5C)C[C@@H](CC#N)C4)c3)n3ncc(Cl)c3c2)C1` [Compound A21, 3-chloro-N-(3-((1s,3R)-3-(cyanomethyl)-1-(4-methyl-4H-1,2,4-triazol-3-yl)cyclobutyl)phenyl)-5-(((S)-3-methylpiperidin-1-yl)methyl)pyrazolo[1,5-a]pyridine-7-carboxamide]: the IC50 in experiment [3] is 2.9 nM; in experiment [4], 31 nM.

On to `Cn1cnnc1[C@]1(c2cncc(NC(=O)c3cc(CNC4(C)CC4)cn4c(Cl)cnc34)c2)C[C@H](C)C1` [Compound A73, 3-chloro-N-(5-((1s, 3s)-3-methyl-1-(4-methyl-4H-1,2,4-triazol-3-yl)cyclobutyl)pyridin-3-yl)-6-(((1-methylcyclopropyl)amino)methyl)imidazo[1,2-a]pyridine-8-carboxamide], for which the IC50 in experiment [3] turned out to be 1.2 nM; in experiment [4], 2.8 nM.

Consider `Cn1cnnc1[C@]1(c2cncc(NC(=O)c3cc(CNC4(C)CCC4)cn4ccnc34)c2)C[C@H](C)C1` [Compound A81, N-(5-((1s, 3s)-3-methyl-1-(4-methyl-4H-1,2,4-triazol-3-yl)cyclobutyl)pyridin-3-yl)-6-(((1-methylcyclobutyl)amino)methyl)imidazo[1,2-a]pyridine-8-carboxamide], for which the IC50 in experiment [3] is 1.8 nM; in experiment [4] it was 8.2 nM.
